Results reported in patent publication US4101552A, “Novel lysergic acid amides and process for preparing same” (Richter Gedeon Vegyeszeti Gyar Rt., priority 1975, dated 1978).

Tests used:
[1] = tested on: serotonin oedema; assay: Antiserotonin effect in vivo: rat-sole oedema (serotonin oedema blocking)
[2] = tested on: blood pressure of cats; assay: Antihypertensive effect: blood pressure of anaesthetized cats; assay type: in vivo, cat
Description: Antihypertensive effect
Method: the blood pressure of cats anaesthetized with
intraperitoneally administered 30 mg/kg of pento-
barbital was measured in the left femoral artery
by means of the Statham P 23 db manometer and re-
corded on Hellige polygraph. The compounds were
administered into the right femoral vein.
Number of animals: 2 to 5 per dose.

[3] = tested on: renal circulation, cerebral blood-vessels, blood-vessels of other organs; assay: Effect on renal circulation and blood-vessels of organs; conditions: in vivo
Description: (§1) It is characteristic of one of the compounds of the present invention and having a hypotensive action that when administered in intravenous doses of 0.1 to 0.5 mg/kg to cats and dogs in pentothal anaesthesia it provokes a permanent decrease of 20 to 60 mmHg in blood pressure (Table 3). […] It might therefore be assumed that the hypotensive effect of the compound according to the invention is the result of its inhibiting effect on the sympathetic cerebral centres. These properties are the most characteristic of the dihydro-lysergic-acid-(3'-/pyrrolid-2"-on-1"-yl/-propyl)-amide bimaleate (Example 1).

[4] = tested on: acute hypertension produced by the infusion of angiotensin; assay: Inhibition of acute hypertension produced by infusion of angiotensin; conditions: in vivo
[5] = tested on: catecholamine content of the organs; assay: Catecholamine content of the organs; conditions: in vivo
[6] = tested on: alpha- or beta-sympatholytic, ganglion-blocking or adrenergic neuron-blocking action; assay: Sympatholytic, ganglion-blocking and adrenergic neuron-blocking action; conditions: in vivo
Description: as §1

[7] = tested on: hypertension produced by stimulation of the baroreceptors and the central vagus stump; assay: Inhibition of hypertension produced by stimulation of the baroreceptors and the central vagus stump; conditions: in vivo
Description: as §1

[8] = tested on: reserpine hypothermia; assay: Antidepressant test: antagonization of reserpine hypothermia; assay type: in vivo; conditions: 30 mg/kg, intraperitoneally
Description: Antidepressant effect (Δt, ° C) and acute toxicity
Antidepressant test: antagonization of reserpine hypothermia
Dose: 30 mg/kg, intraperitoneally
Δt, ° C: change in body temperature compared to that of
Description of the method: ASKEW, B.M., Life Sci. 10, 725

[9] = tested on: isolated rat uterus; assay: Antiserotonin effect in vitro on isolated rat uterus; conditions: read-out: In vitro ED50 (antiserotonin effect)
Excerpt: It is characteristic of the compound that its effect is well measurable even after oral administration, indicating its ready peroral absorption.
In vitro: on isolated rat uterus
Description of the method; GADDUM, J. H. and HAMMED, L. A.: […]

[10] = Acute toxicity: LD50 on mice after 24 hours; conditions: mouse, in vivo
Description: Acute toxicity: LD50 on mice after 24 hours.
Description of the method: […], J.T.jr. and
WILCOXON, F.J., Pharmacol. exp.

[11] = po, rat-sole oedema, peroral, serotonin creatinine sulphate 5 μg per sole in 0.1 ml
[12] = sc, rat-sole oedema, subcutane, serotonin creatinine sulphate 5 μg per sole in 0.1 ml

| Compound | ED50 [1, 11] [mg/kg] | Antidepressant effect, Δt (change in body temperature compared to that of the control) [8] [°C] | ED50 [1, 12] [mg/kg] | IC50 [9] [ng/mL] | also measured |
| --- | --- | --- | --- | --- | --- |
| CC[C@@H](CO)NC(=O)[C@@H]1C=C2c3cccc4c3c(cn4C)C[C@H]2N(C)C1 (racemic) [Deseryl, N-[1-(hydroxymethyl)propyl]-1-methyl-d-/+/-lysergamide, reference compound] | 0.64 | – | – | – | Serotonin oedema blocking effect ED50 ([1]; rat-sole oedema, subcutane, serotonin creatinine sulphate 5 μg per sole in 0.1 ml): 0/026 |
| CN1C[C@H](C(=O)N[C@]2(C)O[C@@]3(O)[C@@H]4CCCN4C(=O)[C@H](Cc4ccccc4)N3C2=O)C[C@@H]2c3cccc4[nH]cc(c34)C[C@H]21 [Dihydroergotamine, reference compound] | – | – | – | – | Decrease in blood pressure ([2]; 0.2 mg/kg i.v.): -25 mmHg; Decrease in blood pressure, duration ([2]; 0.2 mg/kg i.v.): 0.5 h |
| CN1C[C@H](C(=O)NCCCN2CCCC2=O)C[C@@H]2c3cccc4[nH]cc(c34)C[C@H]21 [Example 1, 9,10-Dihydrolysergic-acid-(3'-/pyrrolid-2"-on-1"-yl/-propyl)-amide bimaleate] | – | – | – | – | effect on cerebral blood-vessels and blood-vessels of other organs [3]: does not cause a constriction of the cerebral blood-vessels or a substantial change in the blood-vessels of other organs; renal circulation [3]: tends to improve renal circulation; inhibition of acute hypertension produced by infusion of angiotensin [4]: inhibits acute hypertension produced by the infusion of angiotensin; catecholamine content of the organs [5]: does not alter the catecholamine content of the organs; alpha- or beta-sympatholytic, ganglion-blocking or adrenergic neuron-blocking action [6]: no alpha- or beta-sympatholytic, ganglion-blocking or adrenergic neuron-blocking action; inhibition of hypertension produced by stimulation of the baroreceptors and the central vagus stump [7]: inhibits hypertension produced by the stimulation of the baroreceptors and the central vagus stump |
| CN1C[C@H](C(=O)NCCCN2CCCC2=O)C=C2c3cccc4[nH]cc(c34)C[C@H]21 [Example 2, Lysergic-acid-(3'-/pyrrolid-2"-on-1"-yl/-propyl)-amide bimaleate] | – | 3.5 | – | – | Decrease in blood pressure ([2]; 0.5 mg/kg i.v.): -50 mmHg; Decrease in blood pressure, duration ([2]; 0.5 mg/kg i.v.): 1.5 h |
| CN1C[C@H](C(=O)NCCCN2CCCC2=O)C[C@@H]2c3cccc4c3c(cn4C)C[C@H]21 [Example 3, 1-Methyl-9,10-dihydrolysergic-acid(3'-/pyrrolid-2"-on-1"-yl/propyl)-amide bimaleate] | 1.5 | – | 0.3 | 5 | Decrease in blood pressure ([2]; 0.5 mg/kg i.v.): -30 mmHg; Decrease in blood pressure, duration ([2]; 0.5 mg/kg i.v.): 2.0 h |
| CN1C[C@H](C(=O)NC2=NCCS2)C[C@@H]2c3cccc4c3c(cn4C)C[C@H]21 [Example 4, 1-Methyl-9,10-dihydrolysergic-acid-(2'-thiazolin-2'-yl)-amide bimaleate] | 0.12 | 4.1 | 0.022 | 0.05 | peroral efficacy (in words) ([1]; peroral): particularly favourable peroral efficacy; peroral efficacy relative to Deseryl ([1]; peroral, surpassing the efficacy of Deseryl): about 3.5 times; LD50 at 24 h ([10]; ip, intraperitoneally): 330 mg/kg; LD50 at 24 h ([10]; po, orally): 315 mg/kg |
| CN1C[C@H](C(=O)NC2=NCCS2)C[C@@H]2c3cccc4[nH]cc(c34)C[C@H]21 [Example 5, 9,10-Dihydrolysergic-acid-(thiazolin-2'-yl)-amide bimaleate] | 3 | 3.6 | 0.3 | 500 | – |
| C=CCOCC(O)CNC(=O)[C@@H]1C=C2c3cccc4[nH]cc(c34)C[C@H]2N(C)C1 (stereo partly shown) [Example 6, Lysergic-acid-(3'-allyloxy-2'-oxy-propyl)-amide bimaleate] | – | 5.4 | – | – | LD50 at 24 h ([10]; ip, intraperitoneally): 110 mg/kg; LD50 at 24 h ([10]; po, orally): 205 mg/kg |
| CN1C[C@H](C(=O)Nc2nccs2)C=C2c3cccc4[nH]cc(c34)C[C@H]21 [Example 7, Lysergic-acid-(thiazol-2'-yl)-amide bimaleate] | – | 8.0 | – | – | – |
| CN1C[C@H](C(=O)Nc2nccs2)C[C@@H]2c3cccc4c3c(cn4C)C[C@H]21 [Example 9, 1-Methyl-9,10-dihydrolysergic-acid-(thiazol-2'-yl)-amide bimaleate] | 1 | 4.7 | 0.03 | 500 | Decrease in blood pressure ([2]; 1.0 mg/kg i.v.): -20 mmHg; Decrease in blood pressure, duration ([2]; 1.0 mg/kg i.v.): 1.5 h |
| CN1C[C@H](C(=O)Nc2cccc3ncccc23)C=C2c3cccc4[nH]cc(c34)C[C@H]21 [Example 10, Lysergic-acid-(quinolin-5-yl)-amide bimaleate] | – | 3.9 | – | – | – |
| CN1C[C@H](C(=O)Nc2ccnn2-c2ccccc2)C=C2c3cccc4[nH]cc(c34)C[C@H]21 [Example 11, Lysergic-acid-(1'-phenyl-pyrazol-5'-yl)-amide bimaleate] | – | 2.9 | – | – | – |
| Cc1ccc(NC(=O)[C@@H]2C=C3c4cccc5[nH]cc(c45)C[C@H]3N(C)C2)c(F)c1 [Example 12, Lysergic-acid-(2'-fluoro-4'-methyl-phenyl)-amide bimaleate] | – | 6.9 | – | – | LD50 at 24 h ([10]; ip, intraperitoneally): 30 mg/kg |
| CSc1cccc(NC(=O)[C@@H]2C=C3c4cccc5[nH]cc(c45)C[C@H]3N(C)C2)c1 [Example 13, Lysergic-acid-(3'-methyl-mercapto)-anilide bimaleate] | – | 7.0 | – | – | – |
| Cc1cc(O)ccc1NC(=O)[C@@H]1C[C@@H]2c3cccc4c3c(cn4C)C[C@H]2N(C)C1 [Example 14, 1-Methyl-9,10-dihydrolysergic-acid-(4'-m-cresyl)-amide bimaleate] | 3 | 3.4 | 0.3 | 0.5 | – |
